Source: ChEMBL document CHEMBL3351858, “Opioids and efflux transporters. Part 4: influence of N-substitution on P-glycoprotein substrate activity of noroxymorphone analogues” (Bioorg Med Chem Lett, 2014)
Activity calls are given as the source filed them. No cut-off for these calls is given here.

Organism: Homo sapiens
Assay: Activity at human P-glycoprotein assessed as ATPase activity using firefly luciferase at 200 uM by Pgp-Glo assay in presence of MgATP

Structure (SMILES)	Activity
O=C1CC[C@@]2(O)[C@H]3Cc4ccc(O)c5c4[C@@]2(CCN3CCc2ccccc2)[C@H]1O5	Active
O=C1CC[C@@]2(O)[C@H]3Cc4ccc(O)c5c4[C@@]2(CCN3CC2CC2)[C@H]1O5	inactive
O=C1CC[C@@]2(O)[C@H]3Cc4ccc(O)c5c4[C@@]2(CCN3Cc2ccccc2)[C@H]1O5	Active
CC(C)=CCN1CC[C@]23c4c5ccc(O)c4O[C@H]2C(=O)CC[C@@]3(O)[C@H]1C5	inactive
CN1CC[C@]23c4c5ccc(O)c4O[C@H]2C(=O)CC[C@@]3(O)[C@H]1C5	inactive
C/C=C/CN1CC[C@]23c4c5ccc(O)c4O[C@H]2C(=O)CC[C@@]3(O)[C@H]1C5	Active
C=C(C)CN1CC[C@]23c4c5ccc(O)c4O[C@H]2C(=O)CC[C@@]3(O)[C@H]1C5	Active
O=C1CC[C@@]2(O)[C@H]3Cc4ccc(O)c5c4[C@@]2(CCN3CCCc2ccccc2)[C@H]1O5	Active
C=CCN1CC[C@]23c4c5ccc(O)c4O[C@H]2C(=O)CC[C@@]3(O)[C@H]1C5	inactive
